Assay results: US20230227437A1, “IMMUNOMODULATOR” (priority 2020, published 2023)

Key:
human IL-17A (hIL-17A) = biological target: T1, human IL-17A (hIL-17A) (Homo sapiens, UniProt Q16552); experiment: IL-17A enzyme-linked immunosorbent assay (competitive ELISA, receptor-ligand binding)
T1 construct: purchased Sino Biological Inc. 12047-H07B
T1 sequence (Q16552 24-155): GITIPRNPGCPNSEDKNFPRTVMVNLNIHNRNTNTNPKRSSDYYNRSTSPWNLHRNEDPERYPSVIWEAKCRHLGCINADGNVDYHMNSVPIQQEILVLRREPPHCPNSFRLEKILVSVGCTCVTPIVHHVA
Method: The inhibition of receptor-ligand binding by human IL-17A (hIL-17A) inhibitors was detected by competitive ELISA. A 96-well plate was inoculated 0.2 μg/ml IL-17 (Sino Biological Inc. Cat #12047-H07B) for incubation at 37° C. for 30 min, 100 μL for per well. The 96-well plate was washed four times with phosphate buffered saline (PBS) containing Tween-20 (PBST, 0.05% Tween-20), 200 μL for per well each time. 200 μL of 5% skim milk were added into the 96-well plate for incubation on a shaker at 25° C. for 30 min. The 96-well plate was washed four times with PBST (0.05% Tween-20), and added with 89 μL of PBST and 1 μL of a compound to be measured (100×), in which a concentration the compound to be measured (100×) was 0.003 μM-30 μM. The mixture was mixed evenly and incubated at 25° C. for 10 min. The mixture was added with 10 μL of 16 nM IL-17R, followed by incubation at 25° C. for 30 min. After washing the 96-well plate 4 times, 100 μL of anti-Fc tag horseradish peroxidase (HRP) coupled antibody were added for incubation on a shaker at 25° C. for 30 min. After washing the 96-well plate 4 times, 100 μL of 3,3′,5,5′-tetramethylbenzidine (TMB) substrate solution were added to the 96-well plate for incubation away from light at 25° C. After addition of 20% HCl, an absorbance was measure by a microplate reader at 450 nm.
The compounds prepared according to the above method were assayed for human IL-17A inhibitory activity.

hIL-17A = biological target: T2, hIL-17A (Homo sapiens, UniProt Q16552); experiment: Inhibition of hIL-17A-induced chemokine GROα/CXCL1 production in HT-29 cell; format: cell-based
T2 construct: purchased R&D 317-ILB
T2 sequence (Q16552 20-155 limits assumed): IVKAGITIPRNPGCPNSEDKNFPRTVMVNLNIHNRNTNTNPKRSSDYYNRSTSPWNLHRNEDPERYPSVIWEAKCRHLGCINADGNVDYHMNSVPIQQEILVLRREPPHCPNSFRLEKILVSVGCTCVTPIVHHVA
Method: Human colorectal adenocarcinoma cell HT-29 was inoculated to a 96-well plate (5×10^4 for per well), and incubated at 37° C. on an incubator overnight. A mixture of 30 ng/mL hIL-17A protein (R&D, #317-ILB) with gradient concentrations of IL-17A small molecule inhibitors or with 0.3 μg/mL positive control IL-17A antibody (R&D, #AF-317-NA) was incubated for 1 h at 37° C., and added into the 96-well plate to incubated with HT-29 at 37° C. for 48 h. A level of GROα in a cell culture supernatant was then detected using an ELISA kit for GROα (Cisbio, #62HCXC1peg).
Inhibitory effect of the compound prepared in Examples on hIL-17A-induced chemokine GROα/CXCL1 production in HT-29 cell was tested according to the methods of Experimental Examples 1 and 2. […] “-” indicated not tested. According to the results, the compounds provided herein have good human IL-17A inhibitory activity and can be effectively used in the treatment of diseases associated with abnormal hIL-17A activity.

SMILES	IC50 (human IL-17A (hIL-17A)) [nM]	IC50 (hIL-17A) [nM]
Cc1n[nH]c(C)c1-c1ccc(NC(=O)[C@@H](NC(=O)c2ccnn2C)C2c3ccccc3CC23CC3)cc1 (some centres unmarked) [Compound 1]	18	404
Cc1n[nH]c(C)c1-c1ccc(NC(=O)[C@@H](NC(=O)c2ccnn2C)C2c3cc(F)ccc3CC23CC3)cc1 (some centres unmarked) [Compound 2]	41	196
Cc1n[nH]c(C)c1-c1ccc(NC(=O)[C@@H](NC(=O)c2ccnn2C)C2c3ccccc3OCC23CC3)cc1 (some centres unmarked) [Compound 3]	40	213
Cc1n[nH]c(C)c1-c1ccc(NC(=O)[C@@H](NC(=O)c2ccnn2C)C2c3cc(F)ccc3OCC23CC3)cc1 (some centres unmarked) [Compound 4]	50	50
Cn1nccc1C(=O)N[C@H](C(=O)Nc1ccc(N2CCOCC2)nc1)C1c2ccccc2CC12CC2 (some centres unmarked) [Compound 10]	98	
Cc1n[nH]c(C)c1-c1ccc(NC(=O)[C@@H](NC(=O)c2ccnn2C)C2c3c(F)cccc3CC23CC3)cc1 (some centres unmarked) [Compound 13]	31	391
Cc1nonc1C(=O)N[C@H](C(=O)Nc1ccc(-c2c(C)n[nH]c2C)cc1)C1c2c(F)cccc2CC12CC2 (some centres unmarked) [Compound 14]	59	206
Cc1nonc1C(=O)N[C@H](C(=O)Nc1ccc(-c2c(C)n[nH]c2C)cc1)C1c2ccc(F)cc2CC12CC2 (some centres unmarked) [Compound 15]	48	71
Cc1n[nH]c(C)c1-c1ccc(NC(=O)[C@@H](NC(=O)c2ccnn2C)C2c3ccc(F)cc3CC23CC3)cc1 (some centres unmarked) [Compound 16]	43	55
Cc1n[nH]c(C)c1-c1ccc(NC(=O)[C@@H](NC(=O)c2ccnn2C)C2c3ccc(F)cc3OCC23CC3)cc1 (some centres unmarked) [Compound 17]	36	68
Cc1nonc1C(=O)N[C@H](C(=O)Nc1ccc(-c2c(C)n[nH]c2C)nc1)C1c2cc(F)ccc2OCC12CC2 (some centres unmarked) [Compound 19]	190	2050
Cc1n[nH]c(C)c1-c1ccc(NC(=O)[C@@H](NC(=O)c2ccnn2C(C)C)C2c3cc(F)ccc3OCC23CC3)cn1 (some centres unmarked) [Compound 20]	61	878
CCn1nccc1C(=O)N[C@H](C(=O)Nc1ccc(-c2c(C)n[nH]c2C)nc1)C1c2cc(F)ccc2OCC12CC2 (some centres unmarked) [Compound 21]	66	506
Cc1n[nH]c(C)c1-c1ccc(NC(=O)[C@@H](NC(=O)c2ccnn2C)C2c3cc(F)ccc3OCC23CC3)cn1 (some centres unmarked) [Compound 22]	85	1020
CCc1nonc1C(=O)N[C@H](C(=O)Nc1ccc(-c2c(C)n[nH]c2C)nc1)C1c2cc(F)ccc2OCC12CC2 (some centres unmarked) [Compound 23]	98	1050
CCc1nonc1C(=O)N[C@H](C(=O)Nc1ccc(-c2c(C)n[nH]c2C)cc1)C1c2cc(F)ccc2OCC12CC2 (some centres unmarked) [Compound 25]	56	194
Cc1nonc1C(=O)N[C@H](C(=O)Nc1ccc(-c2c(C)n[nH]c2C)nc1)C1c2ccc(F)cc2OCC12CC2 (some centres unmarked) [Compound 27]	119	672
Cc1n[nH]c(C)c1-c1ccc(NC(=O)[C@@H](NC(=O)c2nonc2C(C)C)C2c3ccc(F)cc3OCC23CC3)cc1 (some centres unmarked) [Compound 28]	110	83
Cc1nonc1C(=O)N[C@H](C(=O)Nc1cnc(-c2c(C)n[nH]c2C)c(F)c1)C1c2ccc(F)cc2CC12CC2 (some centres unmarked) [Compound 29]	152	378
Cc1n[nH]c(C)c1-c1ncc(NC(=O)[C@@H](NC(=O)c2ccnn2C)C2c3ccc(F)cc3CC23CC3)cc1F (some centres unmarked) [Compound 30]	65	229
Cc1n[nH]c(C)c1-c1ccc(NC(=O)[C@@H](NC(=O)c2ccnn2C)C2c3ccc(F)cc3CC23CC3)cn1 (some centres unmarked) [Compound 31]	72	872
Cc1nonc1C(=O)N[C@H](C(=O)Nc1ccc(-c2c(C)n[nH]c2C)nc1)C1c2ccc(F)cc2CC12CC2 (some centres unmarked) [Compound 32]	75	351
Cc1n[nH]c(C)c1-c1ccc(NC(=O)[C@@H](NC(=O)c2nocc2C(C)C)C2c3ccc(F)cc3OCC23CC3)cn1 (some centres unmarked) [Compound 33]	219	92

SMILES	IC50 (human IL-17A (hIL-17A)) [nM]	IC50 (hIL-17A) [nM]
CCc1nocc1C(=O)N[C@H](C(=O)Nc1ccc(-c2c(C)n[nH]c2C)nc1)C1c2ccc(F)cc2OCC12CC2 (some centres unmarked) [Compound 34]	120	63
Cc1n[nH]c(C)c1-c1ccc(NC(=O)[C@@H](NC(=O)c2nocc2C(C)C)C2c3ccc(F)cc3OCC23CC3)cc1 (some centres unmarked) [Compound 35]	311	85
CCc1nocc1C(=O)N[C@H](C(=O)Nc1ccc(-c2c(C)n[nH]c2C)cc1)C1c2ccc(F)cc2OCC12CC2 (some centres unmarked) [Compound 36]	144	58
CCc1nonc1C(=O)N[C@H](C(=O)Nc1ccc(-c2c(C)n[nH]c2C)c(F)c1)C1c2ccc(F)cc2OCC12CC2 (some centres unmarked) [Compound 38]	276	506
Cc1n[nH]c(C)c1-c1ncc(NC(=O)[C@@H](NC(=O)c2nonc2C(C)C)C2c3ccc(F)cc3OCC23CC3)cc1F (some centres unmarked) [Compound 39]	111	856
Cc1n[nH]c(C)c1-c1ccc(NC(=O)[C@@H](NC(=O)c2nonc2C(C)C)C2c3ccc(F)cc3OCC23CC3)cc1F (some centres unmarked) [Compound 40]	186	115
Cc1nonc1C(=O)N[C@H](C(=O)Nc1ccc(-c2c(C)n[nH]c2C)cc1)C1c2cc(F)c(F)cc2OCC12CC2 (some centres unmarked) [Compound 42]	40	70
Cc1nonc1C(=O)N[C@H](C(=O)Nc1ccc(-c2c(C)n[nH]c2C)cc1)C1c2c(F)cc(F)cc2OCC12CC2 (some centres unmarked) [Compound 52]	402	
CCc1nonc1C(=O)N[C@H](C(=O)Nc1ccc(-c2c(C)n[nH]c2C)cc1)C1c2c(F)cc(F)cc2OCC12CC2 (some centres unmarked) [Compound 53]	554	
Cc1n[nH]c(C)c1-c1ccc(NC(=O)[C@@H](NC(=O)c2ccnn2C(C)C)C2c3c(F)cc(F)cc3OCC23CC3)cc1 (some centres unmarked) [Compound 54]	136	
Cc1n[nH]c(C)c1-c1ccc(NC(=O)[C@@H](NC(=O)c2c(C(C)C)no[n+]2[O-])C2c3c(F)cc(F)cc3OCC23CC3)cc1 (some centres unmarked) [Compound 61]	339	
Cc1n[nH]c(C)c1-c1ccc(NC(=O)[C@@H](NC(=O)c2nonc2C(C)C)C2c3c(F)cc(F)cc3OCC23CC3)cn1 (some centres unmarked) [Compound 66]	7130	
Cc1n[nH]c(C)c1-c1ccc(NC(=O)[C@@H](NC(=O)c2ccnn2C(C)C)C2c3c(F)ccc(F)c3OCC23CC3)cn1 (some centres unmarked) [Compound 75]	5000	
CCc1nonc1C(=O)N[C@H](C(=O)Nc1ccc(-c2c(C)n[nH]c2C)cc1)C1c2c(F)ccc(F)c2OCC12CC2 (some centres unmarked) [Compound 78]	985	
Cc1n[nH]c(C)c1-c1ccc(NC(=O)[C@@H](NC(=O)c2nonc2C(C)C)C2c3c(F)ccc(F)c3OCC23CC3)cn1 (some centres unmarked) [Compound 79]	32500	
Cc1nonc1C(=O)N[C@H](C(=O)Nc1ccc(-c2c(C)n[nH]c2C)cc1)C1c2c(F)ccc(F)c2OCC12CC2 (some centres unmarked) [Compound 81]	2060	
Cc1n[nH]c(C)c1-c1ccc(NC(=O)[C@@H](NC(=O)c2nonc2C(C)C)C2c3c(F)ccc(F)c3OCC23CC3)cc1 (some centres unmarked) [Compound 82]	2030	
Cc1n[nH]c(C)c1-c1ncc(NC(=O)[C@@H](NC(=O)c2ccnn2C(C)C)C2c3c(F)ccc(F)c3OCC23CC3)cc1F (some centres unmarked) [Compound 83]	2020	
Cc1n[nH]c(C)c1-c1ncc(NC(=O)[C@@H](NC(=O)c2nonc2C(C)C)C2c3c(F)ccc(F)c3OCC23CC3)cc1F (some centres unmarked) [Compound 84]	9810	
COCCc1nocc1C(=O)N[C@H](C(=O)Nc1cnc(-c2c(C)n[nH]c2C)c(F)c1)C1c2cc(F)c(F)cc2OCC12CC2 (some centres unmarked) [Compound 88]	100	
Cc1n[nH]c(C)c1-c1ccc(NC(=O)[C@@H](NC(=O)c2conc2C2CC2)C2c3cc(F)c(F)cc3OCC23CC3)cc1 (some centres unmarked) [Compound 98]	222	
COCCc1nocc1C(=O)N[C@H](C(=O)Nc1ccc(-c2c(C)n[nH]c2C)cc1)C1c2cc(F)c(F)cc2OCC12CC2 (some centres unmarked) [Compound 104]	116	
